Test results reported in patent publication US9693997B2, “Antiviral compounds” (priority 2013, dated 2017).
Counter-ions that a name gives are not always drawn.

Columns and labels:
[1] = system: Pseudotyped HCV GT1b particles (HCVpp), entry into Huh7-high CD81 cells; assay: microbe, parasite or virus in culture; format: cell-based, HCV GT1b Con1 strain; conditions: Hepatitis C virus, GT1B, 72 h, read-out: HCVpp GT-1b (EC50, μM)
[2] = system: pseudotyped VSV G particles (VSVpp) in Huh7-high CD81 cells; assay: microbe, parasite or virus in culture; format: cell-based, vesicular stomatitis virus; conditions: Vesicular stomatitis virus, 72 h, read-out: VSVpp (EC50, μM)

| Compound | EC50 [1] [µM] | EC50 [2] [µM] |
| --- | --- | --- |
| Nc1nc(Nc2ccc(-c3ccccc3F)c(C(F)(F)F)c2)n[nH]1 [Compound 150, N*3*-(2′-Fluoro-2-trifluoromethyl-biphenyl-4-yl)-1H-[1,2,4]triazole-3,5-diamine] | 0.866 | 21.3 |
| Nc1nc(Nc2ccc(-c3ccc(F)cc3)c(C(F)(F)F)c2)n[nH]1 [Compound 151, N*3*-(4′-Fluoro-2-trifluoromethyl-biphenyl-4-yl)-1H-[1,2,4]triazole-3,5-diamine] | 0.356 | 26.5 |
| Nc1nc(Nc2ccc(-c3ccc(F)c(F)c3)c(C(F)(F)F)c2)n[nH]1 [Compound 152, N*3*-(3′,4′-Difluoro-2-trifluoromethyl-biphenyl-4-yl)-1H-[1,2,4]triazole-3,5-diamine] | 0.575 | 20.4 |
| Nc1nc(Nc2ccc(-c3ccccc3Cl)c(C(F)(F)F)c2)n[nH]1 [Compound 153, N*3*-(2′-Chloro-2-trifluoromethyl-biphenyl-4-yl)-1H-[1,2,4]triazole-3,5-diamine] | 1.81 | 9.61 |
| CS(=O)(=O)c1ccc(-c2ccc(Nc3n[nH]c(N)n3)cc2Cl)cc1 [Compound 154, N*3*-(2-Chloro-4′-methanesulfonyl-biphenyl-4-yl)-1H-[1,2,4]triazole-3,5-diamine] | 2.47 | 16.4 |
| Nc1nc(Nc2ccc(-c3ccccc3Cl)c(Cl)c2)n[nH]1 [Compound 155, N*3*-(2,2′-Dichloro-biphenyl-4-yl)-1H-[1,2,4]triazole-3,5-diamine] | 1.66 | 7.46 |
| CSc1ccc(-c2ccc(Nc3n[nH]c(N)n3)cc2Cl)c(F)c1 [Compound 156, N*3*-(2-Chloro-2′-fluoro-4′-methylsulfanyl-biphenyl-4-yl)-1H-[1,2,4]triazole-3,5-diamine] | 3.77 | 11.3 |
| CS(=O)(=O)c1ccc(-c2ccc(Nc3n[nH]c(N)n3)cc2Cl)c(F)c1 [Compound 157, N3-(2-chloro-2′-fluoro-4′-(methylsulfonyl)biphenyl-4-yl)-1H-1,2,4-triazole-3,5-diamine] | 1.33 | 5.16 |
| NC(=O)c1cccc(-c2c(Cl)cc(Nc3n[nH]c(N)n3)cc2Cl)c1 [Compound 158, 4′-(5-amino-1H-1,2,4-triazol-3-ylamino)-2′,6′-dichlorobiphenyl-3-carboxamide] | 0.539 | > 10 |
| Nc1nc(Nc2cc(Cl)c(-c3ccc(S(=O)(=O)NCCO)cc3)c(Cl)c2)n[nH]1 [Compound 160, 4′-(5-Amino-1H-[1,2,4]triazol-3-ylamino)-2′,6′-dichloro-biphenyl-4-sulfonic acid (2-hydroxy-ethyl)-amide] | 0.063 | 10.6 |
| Nc1nc(Nc2cc(Cl)c(-c3ccc(S(=O)(=O)NCCO)cc3)c(C(F)(F)F)c2)n[nH]1 [Compound 161, 4′-(5-Amino-1H-[1,2,4]triazol-3-ylamino)-2′-chloro-6′-trifluoromethyl-biphenyl-4-sulfonic acid (2-hydroxy-ethyl)-amide] | 0.058 | 26.8 |
| Nc1nc(Nc2cc(Cl)c(-c3ccc(S(=O)(=O)CCO)cc3)c(C(F)(F)F)c2)n[nH]1 [Compound 162, 2-[4′-(5-Amino-1H-[1,2,4]triazol-3-ylamino)-2′-chloro-6′-trifluoromethyl-biphenyl-4-sulfonyl]-ethanol] | 0.126 | > 10 |
| COc1cc(-c2c(Cl)cc(Nc3n[nH]c(N)n3)cc2C(F)(F)F)ccc1S(=O)(=O)NC1CCN(C(=O)OC(C)(C)C)CC1 [Compound 163, tert-butyl 4-(4′-(5-amino-1H-1,2,4-triazol-3-ylamino)-2′-chloro-3-methoxy-6′-(trifluoromethyl)biphenyl-4-ylsulfonamido)piperidine-1-carboxylate] | 0.005 | > 10 |
| CC(C)(C)NS(=O)(=O)c1ccc(-c2c(Cl)cc(Nc3n[nH]c(N)n3)cc2Cl)cc1 [Compound 164, 4′-(5-amino-1H-1,2,4-triazol-3-ylamino)-N-tert-butyl-2′,6′-dichlorobiphenyl-4-sulfonamide] | 0.004 | 7.06 |
| CC(C)(NS(=O)(=O)c1ccc(-c2c(Cl)cc(Nc3n[nH]c(N)n3)cc2C(F)(F)F)cc1)C(F)(F)F [Compound 165, 4′-(5-amino-1H-1,2,4-triazol-3-ylamino)-2′-chloro-N-(1,1,1-trifluoro-2-methylpropan-2-yl)-6′-(trifluoromethyl)biphenyl-4-sulfonamide] | 0.009 | > 10 |
| COc1cc(-c2c(Cl)cc(Nc3n[nH]c(N)n3)cc2C(F)(F)F)ccc1S(=O)(=O)N[C@H]1CC[C@H](O)CC1 [Compound 167, 4′-(5-amino-1H-1,2,4-triazol-3-ylamino)-2′-chloro-N-(trans-4-hydroxycyclohexyl)-3-methoxy-6′-(trifluoromethyl)biphenyl-4-sulfonamide] | 0.009 | > 10 |

| Compound | EC50 [1] [µM] | EC50 [2] [µM] |
| --- | --- | --- |
| Nc1nc(Nc2cc(Cl)c(-c3ccc(S(=O)(=O)NC4CC4)cc3)c(C(F)(F)F)c2)n[nH]1 [Compound 169, 4′-(5-amino-1H-1,2,4-triazol-3-ylamino)-2′-chloro-N-cyclopropyl-6′-(trifluoromethyl)biphenyl-4-sulfonamide] | 0.011 | 3.55 |
| Nc1nc(Nc2cc(Cl)c(-c3ccc(S(N)(=O)=O)cc3)c(C(F)(F)F)c2)n[nH]1 [Compound 171, 4′-(5-amino-1H-1,2,4-triazol-3-ylamino)-2′-chloro-6′-(trifluoromethyl)biphenyl-4-sulfonamide] | 0.028 | 5.23 |
| Nc1nc(Nc2cc(Cl)c(-c3ccc(S(=O)(=O)NC4CC(O)C4)cc3)c(C(F)(F)F)c2)n[nH]1 (centres unmarked) [Compound 172, 4′-(5-amino-1H-1,2,4-triazol-3-ylamino)-2′-chloro-N-(3-hydroxycyclobutyl)-6′-(trifluoromethyl)biphenyl-4-sulfonamide] | 0.032 | 45.1 |
| Nc1nc(Nc2cc(Cl)c(-c3ccc(S(=O)(=O)N[C@H]4C[C@@H](O)C4)cc3)c(C(F)(F)F)c2)n[nH]1 [Compound 174, 4′-(5-amino-1H-1,2,4-triazol-3-ylamino)-2′-chloro-N-(cis-3-hydroxycyclobutyl)-6′-(trifluoromethyl)biphenyl-4-sulfonamide] | 0.038 | > 10 |
| COc1ccc(-c2c(Cl)cc(Nc3n[nH]c(N)n3)cc2C(F)(F)F)cc1S(=O)(=O)NCCO [Compound 175, 4′-(5-amino-1H-1,2,4-triazol-3-ylamino)-2′-chloro-N-(2-hydroxyethyl)-4-methoxy-6′-(trifluoromethyl)biphenyl-3-sulfonamide] | 0.018 | > 10 |
| CC(C)(C)NS(=O)(=O)c1cccc(-c2c(Cl)cc(Nc3n[nH]c(N)n3)cc2C(F)(F)F)c1 [Compound 176, 4′-(5-amino-1H-1,2,4-triazol-3-ylamino)-N-tert-butyl-2′-chloro-6′-(trifluoromethyl)biphenyl-3-sulfonamide] | 0.019 | 9.6 |
| COc1ccc(-c2c(Cl)cc(Nc3n[nH]c(N)n3)cc2C(F)(F)F)cc1S(=O)(=O)N1CCNCC1 [Compound 182, N3-(2-chloro-4′-methoxy-3′-(piperazin-1-ylsulfonyl)-6-(trifluoromethyl)biphenyl-4-yl)-1H-1,2,4-triazole-3,5-diamine hydrochloride] | 0.044 | > 10 |
| Nc1nc(Nc2cc(Cl)c(-c3ccc(S(=O)(=O)N4CCC(F)(F)CC4)cc3)c(C(F)(F)F)c2)n[nH]1 [Compound 183, N3-(2-chloro-4′-(4,4-difluoropiperidin-1-ylsulfonyl)-6-(trifluoromethyl)biphenyl-4-yl)-1H-1,2,4-triazole-3,5-diamine] | 0.048 | 8.19 |
| Nc1nc(Nc2cc(Cl)c(-c3ccc(S(=O)(=O)C4CC4)cc3)c(C(F)(F)F)c2)n[nH]1 [Compound 188, N3-(2-chloro-4′-(cyclopropylsulfonyl)-6-(trifluoromethyl)biphenyl-4-yl)-1H-1,2,4-triazole-3,5-diamine] | 0.089 | 0.09 |
| CNC(=O)c1ccc(-c2c(Cl)cc(Nc3n[nH]c(N)n3)cc2C(F)(F)F)cc1 [Compound 189, 4′-(5-amino-1H-1,2,4-triazol-3-ylamino)-2′-chloro-N-methyl-6′-(trifluoromethyl)biphenyl-4-carboxamide] | 0.08 | 36.8 |
| COc1ccc(-c2c(Cl)cc(Nc3n[nH]c(N)n3)cc2C(F)(F)F)cc1S(=O)(=O)N[C@H]1CC[C@H](O)CC1 [Compound 190, 4′-(5-amino-1H-1,2,4-triazol-3-ylamino)-2′-chloro-N-(trans-4-hydroxycyclohexyl)-4-methoxy-6′-(trifluoromethyl)biphenyl-3-sulfonamide] | 0.046 | 56.1 |
| Nc1nc(Nc2cc(Cl)c(-c3ccc(S(=O)(=O)N4CC(O)C4)cc3)c(C(F)(F)F)c2)n[nH]1 [Compound 191, 1-(4′-(5-amino-1H-1,2,4-triazol-3-ylamino)-2′-chloro-6′-(trifluoromethyl)biphenyl-4-ylsulfonyl)azetidin-3-ol] | 0.069 | 25 |
| Nc1nc(Nc2cc(Cl)c(-c3cccc(S(=O)(=O)N4CCCC4)c3)c(C(F)(F)F)c2)n[nH]1 [Compound 192, N3-(2-chloro-3′-(pyrrolidin-1-ylsulfonyl)-6-(trifluoromethyl)biphenyl-4-yl)-1H-1,2,4-triazole-3,5-diamine] | 0.084 | 17.2 |
| CC(C)(C)NS(=O)(=O)c1cc(-c2c(Cl)cc(Nc3n[nH]c(N)n3)cc2C(F)(F)F)ccc1OC(F)(F)F [Compound 193, 4′-(5-amino-1H-1,2,4-triazol-3-ylamino)-N-tert-butyl-2′-chloro-4-(trifluoromethoxy)-6′-(trifluoromethyl)biphenyl-3-sulfonamide] | 0.075 | 4.97 |
| Nc1nc(Nc2cc(Cl)c(-c3ccc(S(=O)(=O)N4CCC(O)CC4)cc3)c(C(F)(F)F)c2)n[nH]1 [Compound 194, 1-(4′-(5-amino-1H-1,2,4-triazol-3-ylamino)-2′-chloro-6′-(trifluoromethyl)biphenyl-4-ylsulfonyl)piperidin-4-ol] | 0.115 | 22.8 |
